Measured values reported in patent US20060194837A1, “Tetrahydroisoquinoline compounds” (priority 2004, published 2006).

Columns and labels:
[1] = target: T1, Rat SERT (Rattus norvegicus, UniProt P31652); assay: Rat brain SERT binding ([3H]-citalopram displacement); details: rat brain membranes without cerebellum, 0.6 nM [3H]-citalopram, 60 min at 25° C.; read-out: Rat SERT Ki
T1 construct: A rat brain without cerebellum (Zivic Laboratories, Inc.—Pittsburgh, Pa.) was homogenized; tissue Zivic Laboratories, Inc; host or cells: rat brain without cerebellum, membranes
Experimental: The supernatant was removed and re-centrifuged at 15,000 rpm for 30 min. […] Membranes were incubated with 0.6 nM [^3H]-Citalopram plus/minus test compounds for 60 min at 25° C. and harvested by rapid filtration over GF/C glass fiber filters (pretreated with 0.3% polyethylenimine) followed by four washes with ice-cold buffer.

[2] = target: T2, human H3 receptor (Homo sapiens, UniProt Q9Y5N1); assay: H3 receptor binding (N-[3H]-α-methylhistamine displacement); details: membranes of SK-N-MC cells expressing cloned human H3 receptor, 0.8 nM N-[3H]-α-methylhistamine, 60 min at 25° C.
T2 construct: expressed in transfected cells
Experimental: Briefly, cell pellets from SK-N-MC cells expressing the human H3 receptor were homogenized in 50 mM Tris-HCl/5 mM EDTA and re-centrifuged at 30,000 g for 30 min. Pellets were re-homogenized in 50 mM Tris/6 mM EDTA (pH 7.4). Membranes were incubated with 0.8 nM N-[^3H]-α-methylhistamine plus/minus test compounds for 60 min at 25° C. and harvested by rapid filtration over GF/C glass fiber filters (pretreated with 0.3% polyethylenimine) followed by four washes with ice-cold buffer. Nonspecific binding was defined in the presence of 10 μM histamine.

T2 sequence (Q9Y5N1 whole entry): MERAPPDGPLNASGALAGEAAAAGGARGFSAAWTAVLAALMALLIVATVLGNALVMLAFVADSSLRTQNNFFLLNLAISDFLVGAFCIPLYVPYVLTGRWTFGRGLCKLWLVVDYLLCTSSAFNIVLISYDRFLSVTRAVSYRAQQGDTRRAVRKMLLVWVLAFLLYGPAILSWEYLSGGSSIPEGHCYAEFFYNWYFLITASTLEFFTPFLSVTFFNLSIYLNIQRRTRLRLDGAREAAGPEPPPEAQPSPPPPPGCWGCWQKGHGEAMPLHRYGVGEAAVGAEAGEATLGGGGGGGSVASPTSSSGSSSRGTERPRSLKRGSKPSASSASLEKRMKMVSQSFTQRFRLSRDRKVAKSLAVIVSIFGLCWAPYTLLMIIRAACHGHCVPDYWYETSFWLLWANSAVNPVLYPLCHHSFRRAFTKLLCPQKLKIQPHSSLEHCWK
T1 sequence (P31652 whole entry): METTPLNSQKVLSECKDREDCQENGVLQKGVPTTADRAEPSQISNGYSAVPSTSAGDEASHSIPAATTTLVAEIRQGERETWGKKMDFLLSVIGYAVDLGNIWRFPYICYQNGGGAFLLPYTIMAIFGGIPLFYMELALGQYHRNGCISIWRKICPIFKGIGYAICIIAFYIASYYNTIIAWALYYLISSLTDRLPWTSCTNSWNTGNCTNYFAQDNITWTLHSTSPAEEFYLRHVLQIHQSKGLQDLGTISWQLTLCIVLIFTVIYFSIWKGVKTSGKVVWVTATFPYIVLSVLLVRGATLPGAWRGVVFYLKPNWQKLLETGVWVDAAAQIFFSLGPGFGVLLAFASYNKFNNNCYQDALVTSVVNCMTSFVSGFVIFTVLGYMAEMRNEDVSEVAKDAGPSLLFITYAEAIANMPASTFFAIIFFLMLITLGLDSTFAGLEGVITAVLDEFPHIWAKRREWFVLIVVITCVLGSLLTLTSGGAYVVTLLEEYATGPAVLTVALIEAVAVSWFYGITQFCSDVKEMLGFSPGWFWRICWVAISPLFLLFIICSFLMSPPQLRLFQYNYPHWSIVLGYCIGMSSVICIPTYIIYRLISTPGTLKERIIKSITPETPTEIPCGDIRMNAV

Compound | Ki [1] [nM] | Ki [2] [nM]
COc1cccc(C2CN(C)Cc3cc(OC4CCN(C5CCC5)CC4)ccc32)c1 (centres unmarked) [Example 99, 7-(1-Cyclobutyl-piperidin-4-yloxy)-4-(3-methoxy-phenyl)-2-methyl-1,2,3,4-tetrahydro-isoquinoline] | 20 | 2
COc1ccc(C2CN(C)Cc3cc(OCC4CCN(C5CCC5)CC4)ccc32)cc1Cl (centres unmarked) [Example 106, 4-(3-Chloro-4-methoxy-phenyl)-7-(1-cyclobutyl-piperidin-4-ylmethoxy)-2-methyl-1,2,3,4-tetrahydro-isoquinoline] | 25 | 6
COc1ccc(C2CN(C)Cc3cc(OCCCN4CCOCC4)c(C)cc32)cc1F (centres unmarked) [Example 267, 4-(3-Fluoro-4-methoxy-phenyl)-2,6-dimethyl-7-(3-morpholin-4-yl-propoxy)-1,2,3,4-tetrahydro-isoquinoline] | 25 | 12
COc1ccc(C2CN(C)Cc3cc(OCC4CCN(CC(F)(F)F)CC4)ccc32)cc1 (centres unmarked) [Example 123, 4-(4-Methoxy-phenyl)-2-methyl-7-[1-(2,2,2-trifluoro-ethyl)-piperidin-4-ylmethoxy]-1,2,3,4-tetrahydroisoquinoline] | 18 | 346
CN1Cc2cc(OCCCN3CCC(F)CC3)ccc2C(c2ccccc2F)C1 (centres unmarked) [Example 125, 4-(2-Fluoro-phenyl)-7-[3-(4-fluoro-piperidin-1-yl)-propoxy]-2-methyl-1,2,3,4-tetrahydro-isoquinoline] | 45 | 2
COc1ccc(C2CN(Cc3ccccc3)Cc3cc(OCCCN4CCCCC4)ccc32)cc1 (centres unmarked) [Example 65, 2-Benzyl-4-(4-methoxy-phenyl)-7-(3-piperidin-1-yl-propoxy)-1,2,3,4-tetrahydro-isoquinoline] | 3000 | 7
CCCN1CCC(Oc2ccc3c(c2)CN(C)CC3c2cccc(OC)c2)CC1 (centres unmarked) [Example 102, 4-(3-Methoxy-phenyl)-2-methyl-7-(1-propyl-piperidin-4-yloxy)-1,2,3,4-tetrahydro-isoquinoline] | 13 | 2
CSc1ccc(C2CN(C)Cc3cc(OC4CCN(CCC(F)(F)F)CC4)ccc32)cc1 (centres unmarked) [Example 244, 2-Methyl-4-(4-methylsulfanyl-phenyl)-7-[1-(3,3,3-trifluoro-propyl)-piperidin-4-yloxy]-1,2,3,4-tetrahydro-isoquinoline] | 7 | 129
CCCN1CCC(COc2ccc3c(c2)CN(C)CC3c2ccc(OC)c(Cl)c2)CC1 (centres unmarked) [Example 108, 4-(3-Chloro-4-methoxy-phenyl)-2-methyl-7-(1-propyl-piperidin-4-ylmethoxy)-1,2,3,4-tetrahydro-isoquinoline] | 13 | 12
COc1ccc(C2CN(C)Cc3cc(OC[C@H]4CN(C5CC5)CCO4)ccc32)cc1 (single isomer, unassigned) [Example 261A, 7-(4-Cyclopropyl-morpholin-2R-ylmethoxy)-4-(4-methoxy-phenyl)-2-methyl-1,2,3,4-tetrahydro-isoquinoline] | 32 | 73
COc1ccc(C2CN(C)Cc3c2ccc(OCCCN2CCOCC2)c3C)cc1 (centres unmarked) [Example 269, 4-(4-Methoxy-phenyl)-2,8-dimethyl-7-(3-morpholin-4-yl-propoxy)-1,2,3,4-tetrahydro-isoquinoline] | 23 | 44
COc1ccc(C2CN(C)Cc3c2ccc(OCCCN2CCOCC2)c3C)cc1F (centres unmarked) [Example 268, 4-(3-Fluoro-4-methoxy-phenyl)-2,8-dimethyl-7-(3-morpholin-4-yl-propoxy)-1,2,3,4-tetrahydro-isoquinoline] | 12 | 18
COc1ccc(C2CN(C)Cc3cc(OCC4CCN(CC(C)C)CC4)ccc32)c(F)c1 (centres unmarked) [Example 115, 4-(2-Fluoro-4-methoxy-phenyl)-7-(1-isobutyl-piperidin-4-ylmethoxy)-2-methyl-1,2,3,4-tetrahydro-isoquinoline] | 8 | 10
CN1Cc2cc(OCCCN3CCC(F)CC3)ccc2C(c2ccc(C#C[Si](C)(C)C)nc2)C1 (centres unmarked) [Example 189, 7-[3-(4-Fluoro-piperidin-1-yl)-propoxy]-2-methyl-4-(6-trimethylsilanylethynyl-pyridin-3-yl)-1,2,3,4-tetrahydro-isoquinoline] | 108 | 12
COc1ccc(C2CN(C)Cc3cc(OCCCN4CCC5(CC4)OCCO5)ccc32)cc1 (centres unmarked) [Example 41, 7-[3-(1,4-Dioxa-8-aza-spiro[4.5]dec-8-yl)-propoxy]-4-(4-methoxy-phenyl)-2-methyl-1,2,3,4-tetrahydro-isoquinoline] | 6 | 14
CSc1ccc(C2CN(C)Cc3cc(OCC4CCN(CCF)CC4)ccc32)cc1 (centres unmarked) [Example 178, 7-[1-(2-Fluoro-ethyl)-piperidin-4-ylmethoxy]-2-methyl-4-(4-methylsulfanyl-phenyl)-1,2,3,4-tetrahydro-isoquinoline] | 6 | 18
CCOC(=O)C1CCN(CCCOc2ccc3c(c2)CN(C)CC3c2ccc(OC)cc2)CC1 (centres unmarked) [Example 33, 1-{3-[4-(4-Methoxy-phenyl)-2-methyl-1,2,3,4-tetrahydro-isoquinolin-7-yloxy]-propyl}-piperidine-4-carboxylic acid ethyl ester] | 5 | 172
COc1ccc(C2CN(C)Cc3cc(OCC4CCN(C5CCCC5)CC4)ccc32)cc1 (centres unmarked) [Example 86, 7-(1-Cyclopentyl-piperidin-4-ylmethoxy)-4-(4-methoxy-phenyl)-2-methyl-1,2,3,4-tetrahydro-isoquinoline] | 5 | 11
COc1ccc(C2CN(C)Cc3cc(OCC4CCN(C(C)C)CC4)ccc32)cc1Cl (centres unmarked) [Example 88, 4-(3-Chloro-4-methoxy-phenyl)-7-(1-isopropyl-piperidin-4-ylmethoxy)-2-methyl-1,2,3,4-tetrahydro-isoquinoline] | 15 | 3
COc1ccc(C2CN(C)Cc3cc(OCCCN4CCN(C5CC5)CC4)ccc32)cc1 (centres unmarked) [Example 212, 7-[3-(4-Cyclopropyl-piperazin-1-yl)-propoxy]-4-(4-methoxy-phenyl)-2-methyl-1,2,3,4-tetrahydro-isoquinoline] | 9 | 43

Continued, values first:

Ki [1] [nM] | Ki [2] [nM] | Compound
3 | 37 | C=CCN1CCN(CCCOc2ccc3c(c2)CN(C)CC3c2ccc(OC)cc2)CC1 (centres unmarked) [Example 206, 7-[3-(4-Allyl-piperazin-1-yl)-propoxy]-4-(4-methoxy-phenyl)-2-methyl-1,2,3,4-tetrahydro-isoquinoline]
3 | 43 | COc1ccc(C2CN(C)Cc3cc(OCCCN4CCN(CCO)CC4)ccc32)cc1 (centres unmarked) [Example 202, 2-(4-{3-[4-(4-Methoxy-phenyl)-2-methyl-1,2,3,4-tetrahydro-isoquinolin-7-yloxy]-propyl}-piperazin-1-yl)-ethanol]
2 | 18 | COc1ccc(C2CN(C)Cc3cc(OCCCNC4CC4)ccc32)cc1 (centres unmarked) [Example 229, Cyclopropyl-{3-[4-(4-methoxy-phenyl)-2-methyl-1,2,3,4-tetrahydro-isoquinolin-7-yloxy]-propyl}-amine]
1 | 20 | CCNCCCOc1ccc2c(c1)CN(C)CC2c1ccc(OC)cc1 (centres unmarked) [Example 232, Ethyl-{3-[4-(4-methoxy-phenyl)-2-methyl-1,2,3,4-tetrahydro-isoquinolin-7-yloxy]-propyl}-amine]
2 | 96 | COc1ccc(C2CN(C)Cc3cc(OCC4CCNCC4)ccc32)cc1 (centres unmarked) [Example 78, 4-(4-Methoxy-phenyl)-2-methyl-7-(piperidin-4-ylmethoxy)-1,2,3,4-tetrahydro-isoquinoline]
1 | 38 | COc1ccc(C2CN(C)Cc3cc(OCCCNCC(C)C)ccc32)cc1 (centres unmarked) [Example 228, Isobutyl-{3-[4-(4-methoxy-phenyl)-2-methyl-1,2,3,4-tetrahydro-isoquinolin-7-yloxy]-propyl}-amine]
5 | 21 | COc1ccc(C2CN(C)Cc3cc(OCCC4CCCN4C)ccc32)cc1 (single isomer, unassigned) [Example 240B, 4-(4-Methoxy-phenyl)-2-methyl-7-[2-(1-methyl-pyrrolidin-2-yl)-ethoxy]-1,2,3,4-tetrahydro-isoquinoline]
3 | 130 | CSc1ccc(C2CN(C)Cc3cc(OCC4CCNCC4)ccc32)cc1 (centres unmarked) [Example 80, 2-Methyl-4-(4-methylsulfanyl-phenyl)-7-(piperidin-4-ylmethoxy)-1,2,3,4-tetrahydro-isoquinoline]
5 | 3 | COc1ccc(C2CN(C)Cc3cc(OCCCN4CCC(F)CC4)ccc32)cn1 (centres unmarked) [Example 193, 7-[3-(4-Fluoro-piperidin-1-yl)-propoxy]-4-(6-methoxy-pyridin-3-yl)-2-methyl-1,2,3,4-tetrahydro-isoquinoline]
1 | 17 | COc1ccc(C2CN(C)Cc3cc(OCCCNC(C)C)ccc32)cc1 (centres unmarked) [Example 230, Isopropyl-{3-[4-(4-methoxy-phenyl)-2-methyl-1,2,3,4-tetrahydro-isoquinolin-7-yloxy]-propyl}-amine]
2 | 30 | CSc1ccc(C2CN(C)Cc3cc(OCC4CN(CCF)C4)ccc32)cc1 (centres unmarked) [Example 239, 7-[1-(2-Fluoro-ethyl)-azetidin-3-ylmethoxy]-2-methyl-4-(4-methylsulfanyl-phenyl)-1,2,3,4-tetrahydro-isoquinoline]
